Data reported in ChEMBL document CHEMBL3045207, “1-Phenyl-3-toluyl-4-[ortho-1'-(N-ethyl-2'-methylpropylamine)]phenylpyrazole, synthesis and evaluation of the in vitro antifungal activity against Botrytis cinerea and Fusarium oxysporum” (Farmaco, 2004).
Converted amounts (≈) assume the structure as drawn. The source made the active and inactive calls. The rule behind the calls is not given here.

What was measured:
[1] = tested on: Fusarium oxysporum; assay: Antifungal activity against Fusarium oxysporum assessed as growth inhibition at 1 mg/ml after 72 hr by paper disk diffusion method; type: functional; details: read-out: DIZ
[2] = tested on: Fusarium oxysporum; assay: Antifungal activity against Fusarium oxysporum after 72 hr by 96-well microbioassay; type: functional
[3] = tested on: Botrytis cinerea; assay: Antifungal activity against Botryotinia fuckeliana assessed as growth inhibition at 1 mg/ml after 72 hr by paper disk diffusion method; type: functional; details: read-out: DIZ
[4] = tested on: Botrytis cinerea; assay: Antifungal activity against Botryotinia fuckeliana after 72 hr by 96-well microbioassay; type: functional
[5] = tested on: Botrytis cinerea; assay: Inhibition of conidial germination of Botryotinia fuckeliana at 50 ug/ml after 8 days by microscopy; type: functional, organism-based
[6] = tested on: Fusarium oxysporum; assay: Inhibition of conidial germination of Fusarium oxysporum after 8 days by microscopy; type: functional, organism-based; details: 192 h
[7] = tested on: Fusarium oxysporum; assay: Inhibition of conidial germination of Fusarium oxysporum at 100 ug/ml after 8 days by microscopy; type: functional, organism-based
[8] = tested on: Botrytis cinerea; assay: Inhibition of conidial germination of Botryotinia fuckeliana after 8 days by microscopy; type: functional, organism-based; details: 192 h
[9] = tested on: Botrytis cinerea; assay: Inhibition of conidial germination of Botryotinia fuckeliana at 10 ug/ml after 48 hr by microscopy; type: functional
[10] = tested on: Fusarium oxysporum; assay: Inhibition of conidial germination of Fusarium oxysporum at 10 ug/ml after 48 hr by microscopy; type: functional
[11] = tested on: Botrytis cinerea; assay: Inhibition of mycelial growth of Botryotinia fuckeliana after […]; type: functional, organism-based
[12] = tested on: Fusarium oxysporum; assay: Inhibition of mycelial growth of Fusarium oxysporum after […]; type: functional, organism-based

Row | MIC [2] [µg/mL] | MIC [4] [µg/mL] | IC50 [6] [µg/mL] | IC50 [8] [µg/mL] | SMILES | zone of inhibition at 1000 µg/mL [1] [mm] | zone of inhibition at 1000 µg/mL [3] [mm] | inhibition [5] | inhibition [7] | inhibition at 10 µg/mL [9] [%] | inhibition at 10 µg/mL [10] [%] | IC50 [11] [µg/mL] | IC50 [12] [µg/mL]
1 | 15 (≈ 16.2 µM) | 12 (≈ 13 µM) | – | – | C[C@@H]1[C@H](O)[C@@H](C)/C=C/C=C/C=C/C=C/C=C/C=C/C=C/[C@H](O[C@@H]2O[C@H](C)[C@@H](O)[C@H](N)[C@@H]2O)C[C@@H]2O[C@](O)(C[C@@H](O)C[C@@H](O)[C@H](O)CC[C@@H](O)C[C@@H](O)CC(=O)O[C@H]1C)C[C@H](O)[C@H]2C(=O)O [AMPHOTERICIN B] | 26 | 30 | – | – | – | – | – | –
2 | 36 (≈ 87.9 µM) | 25 (≈ 61 µM) | 40.8 (≈ 99.6 µM) | 7.3 (≈ 17.8 µM) | CCNC(c1ccccc1-c1cn(-c2ccccc2)nc1-c1ccc(C)cc1)C(C)C (stereo unspecified) | 23.6 | 26 | Active | Active | 85 | 20 | 6.8 (≈ 16.6 µM) | 17.8 (≈ 43.4 µM)
